Read-outs that look alike come from different tables or passages of the source.
Experiments:
human MAP2K4-EE [1] = target: T1, human MAP2K4-EE (Homo sapiens, UniProt P45985, S257E/T261E); assay: Fluorescence-based thermal shift (FTS) assay; format: binding; settings: for ΔTm at 10 µM: 10 µM compound, mean ± SD
T1 construct: Human MAP2K4-EE (residues 37–399); His tag (pMCSG7 vector, TEV-cleavable) (N); made in house; host or cells: E. coli KRX cells with pGro7 (GroEL/GroES)
T1 sequence (P45985 37-399 S257E/T261E): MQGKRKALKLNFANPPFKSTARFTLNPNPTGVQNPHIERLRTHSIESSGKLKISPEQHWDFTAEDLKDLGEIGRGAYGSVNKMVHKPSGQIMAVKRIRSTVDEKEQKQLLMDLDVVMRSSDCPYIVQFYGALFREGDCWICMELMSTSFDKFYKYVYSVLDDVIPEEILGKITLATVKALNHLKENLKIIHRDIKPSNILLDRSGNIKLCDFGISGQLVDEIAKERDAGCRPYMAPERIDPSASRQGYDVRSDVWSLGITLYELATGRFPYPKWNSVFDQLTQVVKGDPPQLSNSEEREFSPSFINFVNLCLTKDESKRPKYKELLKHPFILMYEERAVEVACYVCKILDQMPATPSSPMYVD
Protocol: Small molecule screening by FTS assay was performed as described previously, [23] but with modifications, using an Echo550 (Labcyte) for compound transfer and a Mosquito (TTP Labtech) to dispense protein into 384 well PCR plates. Purified MAP2K4-EE was appropriately diluted in a buffer containing 100 mM Hepes, pH 7.5, 150 mM NaCl. […] The PCR plates were sealed with optical seal, shaken, and centrifuged after protein and compounds were added. […] Curve fitting, melting temperature calculation and report generation on the raw FTS data were performed using software developed by us. Initial screening with the 2000 compound Spectrum Collection was carried out in a pooled fashion. Specifically, 3 compounds were added at 10 µM concentration to each well and wells with positive Tm shift >2°C were then dissected to identify the responsible compound.

[2] = target: T2, MAP3K1 activated murine MAP2K4 (MAP2K4-AC) (Mus musculus, UniProt P47809); assay: In vitro MAP2K4 kinase assay, p38α MAPK (K53A) substrate, Western blot densitometry; format: biochemical
T2 construct: purchased Millipore 14-377
T2 sequence (P47809 1-397): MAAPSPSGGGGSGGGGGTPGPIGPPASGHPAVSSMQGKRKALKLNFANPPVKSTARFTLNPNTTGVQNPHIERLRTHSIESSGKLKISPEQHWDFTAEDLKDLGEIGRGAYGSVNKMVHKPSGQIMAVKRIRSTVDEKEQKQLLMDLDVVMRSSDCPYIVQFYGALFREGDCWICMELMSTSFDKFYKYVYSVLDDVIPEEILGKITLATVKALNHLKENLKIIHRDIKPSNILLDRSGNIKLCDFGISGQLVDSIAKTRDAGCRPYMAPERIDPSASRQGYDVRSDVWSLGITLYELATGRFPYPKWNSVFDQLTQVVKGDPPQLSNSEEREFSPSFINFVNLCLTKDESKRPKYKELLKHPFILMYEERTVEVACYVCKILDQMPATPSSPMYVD
Protocol: In addition to activated MAP2K4, the in vitro kinase assay used either kinase dead JNK1-K55M (Abcam # ab95248) or kinase dead p38α MAPK-K53A (generously provided by Dr. Martin Watterson, Northwestern) as the substrate, ATP (Cell Signaling) and kinase assay buffer (25 mM Tris-HCl (pH 7.5), 5 mM beta-glycerophosphate, 2 mM dithiothreitol (DTT), 0.1 mM Na3VO4, 10 mM MgCl2). […] Geraldol, 2′,4′-dihydroxychalcone and 3,2′-dihyrdoxy-4,4′,6′-trimethoxychalcone were purchased from Indofine Chemical Company. All other compounds were purchased from Sigma-Aldrich. To tubes containing 13 µl of 1.5X buffer on ice the assay reagents were added as indicated for a final reaction volume of 20 µL: 25 ng of MAP2K4-AC (stocks of 25 ng/uL were prepared and aliquoted from a 10 ug vial after the supplier concentration was verified using a Nanodrop 1000), inhibitors as denoted (from DMSO stock solutions), 1 µM final ATP, and 1 µg of JNK1 or p38 MAPK. […] All kinase assays were performed twice at separate times.
(§1) Twenty µl of reaction mixtures were separated by sodium dodecyl sulfate-polyacrylamide gel electrophoresis using precast 4–20% gradient gels (Biorad), per the manufacturers' instructions, and transferred onto 0.45 µm nitrocellulose membranes (Biorad). […] Bands were visualized with the aid of chemiluminescence reagents (GE Healthcare) after hybridization with a HRP conjugated rabbit secondary antibody (GE Healthcare). […] The bands were quantified using ImageJ software; normalized inhibitor-response data were plotted using Prism 6 to determine relative IC50 values.

[3] = target: T2, MAP3K1 activated murine MAP2K4 (MAP2K4-AC); assay: In vitro MAP2K4 kinase assay, JNK1 (K55M) substrate, Western blot densitometry; format: biochemical
Protocol: In addition to activated MAP2K4, the in vitro kinase assay used either kinase dead JNK1-K55M (Abcam # ab95248) or kinase dead p38α MAPK-K53A (generously provided by Dr. Martin Watterson, Northwestern) as the substrate, ATP (Cell Signaling) and kinase assay buffer (25 mM Tris-HCl (pH 7.5), 5 mM beta-glycerophosphate, 2 mM dithiothreitol (DTT), 0.1 mM Na3VO4, 10 mM MgCl2). […] All other compounds were purchased from Sigma-Aldrich. To tubes containing 13 µl of 1.5X buffer on ice the assay reagents were added as indicated for a final reaction volume of 20 µL: 25 ng of MAP2K4-AC (stocks of 25 ng/uL were prepared and aliquoted from a 10 ug vial after the supplier concentration was verified using a Nanodrop 1000), inhibitors as denoted (from DMSO stock solutions), 1 µM final ATP, and 1 µg of JNK1 or p38 MAPK. […] All kinase assays were performed twice at separate times.
as §1

human MAP2K4-EE [4] = target: T1, human MAP2K4-EE; assay: Fluorescence-based thermal shift (FTS) assay; format: binding; settings: 1 mM ligand
MMP-2 expression = system: MMP-2 expression; set-up: method as in PMID 19638505; settings: prospective administration to humans; cited from earlier work
human PCa cells = system: human PCa cells; set-up: method as in PMID 18339885; settings: orthotopically implanted into mice; cited from earlier work
[5] = kinase dead p38α MAPK-K53A substrate, 1 µM ATP, mean (95% confidence intervals), read-out: IC50-p38
[6] = kinase dead JNK1-K55M substrate, 1 µM ATP, mean (95% confidence intervals), read-out: IC50-JNK1

Compound: O=C(/C=C/c1ccccc1)c1ccc(O)cc1O [2′,4′-dihydroxychalcone]
- ΔTm at 10 µM (human MAP2K4-EE [1]; n = 3, 10 µM): 3.67±0.50 °C
- ΔTm at 10 µM (human MAP2K4-EE [1]; n = 3, read-out: ΔTm at 10 µM): 3.7 °C
- IC50 [2, 5]: 16.9 µM

Compound: O=c1c(O)c(-c2ccccc2)oc2cc(O)ccc12 [3,7-dihydroxyflavone]
- ΔTm at 10 µM (human MAP2K4-EE [1]; n = 3, 10 µM): 2.55±0.20 °C
- ΔTm at 10 µM (human MAP2K4-EE [1]; n = 3, read-out: ΔTm at 10 µM): 2.5 °C
- IC50 [2, 5]: 0.8 µM

Compound: Nc1ncnc2c1c(I)cn2[C@@H]1O[C@H](CO)[C@@H](O)[C@H]1O [5-iodotubercidin]
- ΔTm at 10 µM (human MAP2K4-EE [1]; n = 3, 10 µM): 4.29±0.07 °C
- ΔTm at 10 µM (human MAP2K4-EE [1]; n = 3, read-out: ΔTm at 10 µM): 4.3 °C
- IC50 [3, 6]: 2.8 µM
- IC50 [2, 5]: 0.2 µM

Compound: COc1cc(/C=C(\C#N)C(N)=O)cc(CSc2nc3ccccc3s2)c1O [AG825]
- ΔTm at 10 µM (human MAP2K4-EE [1]; n = 3, 10 µM): 2.26±0.15 °C
- ΔTm at 10 µM (human MAP2K4-EE [1]; n = 3, read-out: ΔTm at 10 µM): 2.3 °C
- IC50 [3, 6]: 25 µM
- IC50 [2, 5]: 28.5 µM

Compound: Nc1ncnc2c1ncn2[C@@H]1O[C@H](COP(=O)(O)OP(=O)(O)NP(=O)(O)O)[C@@H](O)[C@H]1O [AMP-PNP]
- shift in Tm (ΔTm) (human MAP2K4-EE [4]): highest ΔTm values

Compound: Nc1ncnc2c1ncn2[C@@H]1O[C@H](COP(=O)(O)OP(=O)(O)OP(=O)(O)O)[C@@H](O)[C@H]1O [ATP]
- shift in Tm (ΔTm) (human MAP2K4-EE [4]): > 10 °C

Compound: O=C1c2ccccc2C(=O)c2c1ccc(O)c2O [Alizarin, 1,2-dihydroxyanthraquinone]
- IC50 [2]: 0.9 µM

Compound: O=c1cc(-c2ccc(O)cc2)oc2cc(O)cc(O)c12 [Apigenin]
- ΔTm at 10 µM (human MAP2K4-EE [1]; n = 3, read-out: ΔTm at 10 µM): 2.8 ± 0.23 °C
- IC50 [3, 6]: 20.1 µM
- IC50 [2, 5]: 15.9 µM

Compound: O=c1cc(-c2ccccc2)oc2cc(O)cc(O)c12 [Chrysin, 5,7-dihydroxyflavone]
- ΔTm at 10 µM (human MAP2K4-EE [1]; n = 3, 10 µM): 1.78±0.42 °C
- ΔTm at 10 µM (human MAP2K4-EE [1]; n = 3, read-out: ΔTm at 10 µM): 1.8 °C
- IC50 [2, 5]: 10.1 µM

Compound: O=c1c(-c2ccc(O)cc2)coc2cc(O)ccc12 [Daidzein]
- thermal stabilization of MAP2K4 (concentration dependent thermal shift) (human MAP2K4-EE [1]; 1, 10 and 25 µM): no such thermal stabilization effect
- inhibition of MAP2K4 activity ([2]; concentrations of up to 200 µM, p38 MAPK (K53A) or JNK1 (K55M) substrates): does not inhibit

Compound: COc1cc(-c2oc3cc(O)ccc3c(=O)c2O)ccc1O [Geraldol, 3,4′,7-Trihydroxy-3′-methoxyflavone]
- IC50 [2]: 0.8 µM

Compound: NCC(=O)O [L-glycine]
- shift in Tm (ΔTm) (human MAP2K4-EE [4]): did not induce thermal stability

Compound: Cc1ccc(-c2nn(C(C)(C)C)c3ncnc(N)c23)cc1 [PP1]
- ΔTm at 10 µM (human MAP2K4-EE [1]; n = 3, 10 µM): 2.55±0.03 °C
- ΔTm at 10 µM (human MAP2K4-EE [1]; n = 3, read-out: ΔTm at 10 µM): 2.5 °C
- IC50 [3]: 16.9 µM
- IC50 [2]: 13.8 µM

Compound: CC(C)(C)n1nc(-c2ccc(Cl)cc2)c2c(N)ncnc21 [PP2]
- ΔTm at 10 µM (human MAP2K4-EE [1]; n = 3, 10 µM): 2.33±0.04 °C
- ΔTm at 10 µM (human MAP2K4-EE [1]; n = 3, read-out: ΔTm at 10 µM): 2.3 °C
- IC50 [3]: 22.3 µM
- IC50 [2]: 39.9 µM

Compound: O=C(CCc1ccc(O)cc1)c1c(O)cc(O)cc1O [Phloretin]
- ΔTm at 10 µM (human MAP2K4-EE [1]; n = 3, 10 µM): 2.69±0.33 °C
- ΔTm at 10 µM (human MAP2K4-EE [1]; n = 3, read-out: ΔTm at 10 µM): 2.7 °C

Compound: O=c1c(O)c(-c2ccc(O)c(O)c2)oc2cc(O)cc(O)c12 [Quercetin]
- ΔTm at 10 µM (human MAP2K4-EE [1]; n = 3, read-out: ΔTm at 10 µM): 2.75 ± 0.22 °C
- IC50 [3, 6]: 1.7 µM
- IC50 [2, 5]: 2 µM

Compound: O=C1c2ccccc2-c2n[nH]c3cccc1c23 [SP600125]
- ΔTm at 10 µM (human MAP2K4-EE [1]; n = 3, 10 µM): 6.4±0.06 °C
- ΔTm at 10 µM (human MAP2K4-EE [1]; n = 3, read-out: ΔTm at 10 µM): > 4 °C
- IC50 [3, 6]: 0.7 µM
- IC50 [2, 5]: 0.4 µM

Compound: O=c1c(-c2ccc(O)cc2)coc2cc(O)cc(O)c12 [genistein, 4,5,7-trihydroxyisoflavone]
- MMP-2 expression in prostate tissue (MMP-2 expression): selectively decreases MMP-2 expression
- metastasis of human PCa cells (human PCa cells): inhibits the metastasis

Source: PMC3855329, “A Fluorescence-Based Thermal Shift Assay Identifies Inhibitors of Mitogen Activated Protein Kinase Kinase 4” (PLoS ONE, 2013)
